Experiment [1] deals with T1, ER (Homo sapiens, UniProt P03372).
T1 construct: T47D breast cancer cells were subcultured in cell culture medium; endogenous in cells; host or cells: T47D breast cancer cells
T1 sequence (P03372 1-595): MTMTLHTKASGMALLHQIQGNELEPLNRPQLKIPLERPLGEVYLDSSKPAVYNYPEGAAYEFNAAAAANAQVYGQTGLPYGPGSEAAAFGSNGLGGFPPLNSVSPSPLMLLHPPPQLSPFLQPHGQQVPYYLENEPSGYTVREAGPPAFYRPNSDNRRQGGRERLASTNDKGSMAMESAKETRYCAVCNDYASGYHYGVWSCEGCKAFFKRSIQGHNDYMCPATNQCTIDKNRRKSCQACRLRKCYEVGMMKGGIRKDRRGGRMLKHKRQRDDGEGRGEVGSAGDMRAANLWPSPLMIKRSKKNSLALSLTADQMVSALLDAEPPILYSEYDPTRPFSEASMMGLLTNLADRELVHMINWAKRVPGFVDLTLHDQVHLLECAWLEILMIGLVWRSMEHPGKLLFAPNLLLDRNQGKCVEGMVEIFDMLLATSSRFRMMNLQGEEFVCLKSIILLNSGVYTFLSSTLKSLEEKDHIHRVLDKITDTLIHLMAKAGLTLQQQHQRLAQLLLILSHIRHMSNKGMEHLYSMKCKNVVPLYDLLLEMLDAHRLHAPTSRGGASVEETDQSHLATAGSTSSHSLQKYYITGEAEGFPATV
As to the kind of experiment: Degradation activities on ER (Western blotting) in T47D breast cancer cells. In kind it is cell-based. The settings on record: 24 h, Western blot. On the procedure:
T47D breast cancer cells were subcultured in cell culture medium, and the cells in good growth condition were seeded into 6-well plate at 2 mL/well, with 2.5×10^5 cells per well. The cells were incubated overnight in a 37° C. incubator under 5% CO2. The drug was prepared into 10 mM stock solution with dimethyl sulfoxide (DMSO). Prior to use, the stock solution was diluted with DMSO in a ratio of 1:3. […] of the diluted compound was added to the cell culture wells (to ensure a DMSO concentration of 0.1% in the culture system), and each concentration was repeated twice. The plate were gently shaken to mix. Additionally, the negative control wells (containing equal amount of DMSO) and the positive control wells were set up. After 24 hours of culture, the cells were lysed with RIPA cell lysis buffer to extract proteins, and the protein concentration was measured using a BCA kit. The protein loading buffer (5×) was added, and the plate was heated at 100° C. for 5 min. Then, the sample was stored at −20° C. […] of protein collected from each well was loaded onto a polyacrylamide gel for electrophoresis. The protein is transferred from the polyacrylamide gel to a PVDF membrane, blocked with 5% skim milk at room temperature for 1 h, and incubated overnight at 4° C. with primary antibodies Anti-ERα rabbit mAb (CST, Cat #: 8644S) and Anti-GAPDH rabbit mAb (CST, Cat #: 2118L). The membrane was washed three times with TBST solution, with 10 min for each time. The secondary antibody (horseradish peroxidase-labeled goat anti-rabbit IgG) was incubated at room temperature for 2 h, and then the membrane was washed three times with TBST solution, with 10 min for each time. Finally, ECL chromogenic solution was added for color development, and an automatic chemiluminescence instrument was used to take pictures. Images were collected and analyzed.
The degradation activities of the compounds according to the present invention towards ER, as tested by western blotting, are presented in Table 2

The target in experiment [2] is T1, ER. Nature of the experiment: Degradation activities on ER (ELISA) in T47D breast cancer cells. The settings on record: for DC50: concentration required to degrade 50% of the target protein. In kind it is cell-based. In a few lines:
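Cellular ER degradation ELISA: compound dosed 24 h on T47D cells (2.5×10^4/well, pre-grown 3 days) at six final levels from 100 nM downward. Remaining ER was detected by HRP-TMB absorbance at 450 nm. Dose-response fitting gave DC50 and Dmax, the maximal percentage degraded.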

The mark [3] stands for this setting: T47D cells, 24 h, ELISA, maximum percentage of target protein degraded, read-out: Dmax.

Like-named read-outs stand apart in the source and are kept apart here. Some results are limits rather than exact numbers.

For `O=C1CCC(N2C(=O)c3ccc(N4CC5(CCN(CC6CCN(c7ccc([C@H]8c9ccc(O)cc9OC[C@H]8c8ccccc8)cc7)CC6)CC5)C4)cc3C2=O)C(=O)N1` (stereo partly drawn) [Example 80, 2-(2,6-dioxopiperidin-3-yl)-5-(7-((1-(4-((3R,4S)-7-hydroxyl-3-phenylchroman-4-yl)phenyl)piperidin-4-yl)methyl)-2,7-diazaspiro[3.5]nonane-2-yl)isoinodolin-1,3-dione], the “Percentage reduction of ER” value in experiment [1] (compound concentration 1 nM) is on record as 50%.
For orientation: DC50 means the concentration giving 50% degradation. Low values mean a more potent degrader, high ones a less potent degrader. By Dmax is commonly meant the greatest extent of degradation seen. In experiment [2] (T47D cells, 24 h, ELISA), `O=C1CCC(N2C(=O)c3ccc(N4CC(N5CCN(c6ccc([C@@H]7c8ccc(O)cc8CC[C@@H]7c7ccccc7)cc6)CC5)C4)cc3C2=O)C(=O)N1` (stereo partly drawn) [Example 55, 2-(2,6-dioxopiperidin-3-yl)-5-(3-(4-(4-((1R,2S)-6-hydroxyl-2-phenyl-1,2,3,4-tetrahydronaphthalen-1-yl)phenyl)piperazine-1-yl)azetidin-1-yl)isoinodolin-1,3-dione] had a DC50 of over 0.1 µM. The Dmax in experiment [2] (setting [3]) is under 50%. Also, the “Percentage reduction of ER” value in experiment [1] (compound concentration 100 nM) is reported as 25%.
Regarding `O=C1CCC(N2Cc3cc(N4CCC5(CC4)CN(CC4CCN(c6ccc([C@@H]7c8ccc(O)cc8CC[C@@H]7c7ccccc7)cc6)CC4)C5)ccc3C2=O)C(=O)N1` (stereo partly drawn) [Example 27, 3-(5-(2-((1-(4-((1R,2S)-6-hydroxyl-2-phenyl-1,2,3,4-tetrahydronaphthalen-1-yl)phenyl)piperidin-4-yl)methyl)-2,7-diazaspiro[3.5]nonan-7-yl)-1-oxoisoinodolin-2-yl)piperidin-2,6-dione], in experiment [2] (T47D), the Dmax is under 50%. In experiment [2] (T47D cells, 24 h, ELISA), this compound displayed a DC50 of over 0.1 µM. Further, the “Percentage reduction of ER” value in experiment [1] (compound concentration 1 nM) worked out at 78%.
In turn, `O=C1CCC(N2Cc3cc(N4CC5(CCN(CC6CCN(c7ccc([C@H]8c9ccc(O)cc9OC[C@H]8c8ccccc8F)cc7)CC6)CC5)C4)ccc3C2=O)C(=O)N1` (stereo partly drawn) [Example 34, 3-(5-(7-((1-(4-((3R,4S)-3-(2-fluorophenyl)-7-hydroxychroman-4-yl)phenyl)piperidin-4-yl)methyl)-2,7-diazaspiro[3.5]nonane-2-yl)-1-oxoisoindol-2-yl)piperidin-2,6-dione] came in with a DC50 in experiment [2] (T47D cells, 24 h, ELISA) of over 0.1 µM. Moreover, the Dmax in experiment [2] (setting [3]) was under 50%. In addition, the “Percentage reduction of ER” value in experiment [1] (compound concentration 100 nM) was determined as 51%.
Take `O=C1CCC(N2Cc3cc(N4CCC5(CCN(CC6CCN(c7ccc([C@@H]8c9ccc(O)cc9CC[C@@H]8c8ccccc8)cc7)CC6)C5)C4)ccc3C2=O)C(=O)N1` (stereo partly drawn) [Example 2, 3-(5-(7-((1-(4-((1R,2S)-6-hydroxyl-2-phenyl-1,2,3,4-tetrahydronaphthalen-1-yl)phenyl)piperidin-4-yl)methyl)-2,7-diazaspiro[4.4]nonane-2-yl)-1-oxoisoinodolin-2-yl)piperidin-2,6-dione]: the DC50 in experiment [2] (T47D cells, 24 h, ELISA) is over 0.1 µM. Further, in experiment [2] (setting [3]), the Dmax was under 50%. Also, the “Percentage reduction of ER” value in experiment [1] (compound concentration 1 nM) amounted to 53%.
On to `O=C1CCC(N2Cc3cc(N4CC5(CN(CC6CCN(c7ccc([C@H]8c9ccc(O)cc9OC[C@H]8c8ccccc8)cc7)CC6)C5)C4)ccc3C2=O)C(=O)N1` (stereo partly drawn) [Example 56, 3-(5-(6-((1-(4-((3R,4S)-7-hydroxyl-3-phenyl-chroman-4-yl)phenyl)piperidin-4-yl)methyl)-2,6-diazaspiro[3.3]heptane-2-yl)-1-oxoisoinodolin-2-yl)piperidin-2,6-one], for which the “Percentage reduction of ER” value in experiment [1] (compound concentration 1 nM) is 59%.
For `O=C1CCC(N2Cc3cc(N4CC(N5CCN(c6ccc([C@@H]7c8ccc(O)cc8CC[C@@H]7c7ccccc7)cc6)CC5)C4)ccc3C2=O)C(=O)N1` (stereo partly drawn) [Example 59, 3-(5-(3-(4-(4-((1R,2S)-6-hydroxyl-2-phenyl-1,2,3,4-tetrahydronaphthalen-1-yl)phenyl)piperazine-1-yl)azetidin-1-yl)-1-oxoisoindol-2-yl)piperidin-2,6-dione], the “Percentage reduction of ER” value in experiment [1] (compound concentration 10 nM) worked out at 54%.
Take `O=C1CCC(N2C(=O)c3ccc(N4CC5CN(CC6CCN(c7ccc([C@@H]8c9ccc(O)cc9CC[C@@H]8c8ccccc8)cc7)CC6)CC5C4)cc3C2=O)C(=O)N1` (stereo partly drawn) [Example 25, 2-(2,6-dioxopiperidin-3-yl)-5-(5-((1-(4-((1R,2S)-6-hydroxyl-2-phenyl-1,2,3,4-tetrahydronaphthalen-1-yl)phenyl)piperidin-4-yl)methyl)hexahydropyrrolo[3,4-c]pyrrole-2(1H)-yl)isoinodolin-1,3-dione]: the DC50 in experiment [2] (T47D cells, 24 h, ELISA) was over 0.1 µM. Besides, the Dmax in experiment [2] (setting [3]) is under 50%. Further, the “Percentage reduction of ER” value in experiment [1] (compound concentration 10 nM) stood at 47%.
On to `O=C1CCC(N2C(=O)c3ccc(N4CC5(CN(CC6CCN(c7ccc([C@@H]8c9ccc(O)cc9CC[C@@H]8c8ccccc8)cc7)CC6)C5)C4)cc3C2=O)C(=O)N1` (stereo partly drawn) [Example 54, 2-(2,6-dioxopiperidin-3-yl)-5-(6-((1-(4-((1R,2S)-6-hydroxyl-2-phenyl-1,2,3,4-tetrahydronaphthalen-1-yl)phenyl)piperidin-4-yl)methyl)-2,6-diazaspiro[3.3]heptan-2-yl)isoinodolin-1,3-dione], for which the DC50 in experiment [2] (T47D cells, 24 h, ELISA) is over 0.1 µM. In addition, the Dmax in experiment [2] (setting [3]) is under 50%. The “Percentage reduction of ER” value in experiment [1] (compound concentration 100 nM) came to 57%.
The compound `O=C1CCC(N2C(=O)c3ccc(N4CCC5(CCN(CC6CCN(c7ccc([C@@H]8c9ccc(O)cc9CC[C@@H]8c8ccccc8)cc7)CC6)C5)C4)cc3C2=O)C(=O)N1` (stereo partly drawn) [Example 53, 2-(2,6-dioxopiperidin-3-yl)-5-(7-((1-(4-((1R,2S)-6-hydroxyl-2-phenyl-1,2,3,4-tetrahydronaphthalen-1-yl)phenyl)piperidin-4-yl)methyl)-2,7-diazaspiro[4.4]nonane-2-yl)isoinodolin-1,3-dione] gave a DC50 in experiment [2] (T47D cells, 24 h, ELISA) of over 0.1 µM. In experiment [2] (setting [3]), the Dmax was under 50%. In experiment [1] (compound concentration 1 nM), the “Percentage reduction of ER” value is 39%.
For the compound `O=C1CCC(N2Cc3cc(N4CC5CN(CC6CCN(c7ccc([C@H]8c9ccc(O)cc9OC[C@H]8c8ccccc8)cc7)CC6)CC5C4)ccc3C2=O)C(=O)N1` (stereo partly drawn) [Example 82, 3-(5-(5-((1-(4-((3R,4S)-7-hydroxyl-3-phenylchroman-4-yl)phenyl)piperidin-4-yl)methyl)hexahydropyrrolo[3,4-c]pyrrole-2(1H)-yl)-1-oxoisoinodolin-2-yl)piperidin-2,6-dione], the “Percentage reduction of ER” value in experiment [1] (compound concentration 10 nM) turned out to be 49%.
As to `O=C1CCC(N2Cc3cc(N4CCC(N5CC6(CCN(c7ccc([C@@H]8c9ccc(O)cc9CC[C@@H]8c8ccccc8)cc7)CC6)C5)CC4)ccc3C2=O)C(=O)N1` (stereo partly shown) [Example 12], the Dmax in experiment [2] (T47D) is over 75%. In experiment [2] (T47D cells, 24 h, ELISA), this compound showed a DC50 of 0.01 to 0.05 µM. In addition, the “Percentage reduction of ER” value in experiment [1] (compound concentration 10 nM) was 84%.
Turning to `O=C1CCC(N2C(=O)c3ccc(N4CCC(CN5CCC6(CC5)CN(c5ccc([C@@H]7c8ccc(O)cc8CC[C@@H]7c7ccccc7)cc5)C6)CC4)cc3C2=O)C(=O)N1` (stereo partly shown) [Example 1], in experiment [2] (T47D cells, 24 h, ELISA), the DC50 was under 0.01 µM. Further, the Dmax in experiment [2] (setting [3]) lay in the range of 50 to 75%. Besides, the “Percentage reduction of ER” value in experiment [1] (compound concentration 10 nM) was 71%.
